Results: the NIST ThermoML archive (doi:10.1021/je700260f)
Numbers after ± are expanded uncertainties.

Conditions: Liquid, Vibrating tube method

In the case of FC(C(F)(F)F)C(F)(F)F [1,1,1,2,3,3,3-heptafluoropropane], the mass density (303.14 K, 32887 kPa) is reported as 1525.2 ± 1.8 kg/m3, the mass density (303.14 K, 32920 kPa) is reported as 1525.2 ± 1.8 kg/m3 and the mass density (303.14 K, 32949 kPa) is reported as 1525.4 ± 1.8 kg/m3. For the same compound, the mass density (303.14 K, 32977 kPa) was 1525.5 ± 1.8 kg/m3, the mass density (303.14 K, 33020 kPa) was 1525.5 ± 1.8 kg/m3 and the mass density (303.14 K, 33054 kPa) was 1525.6 ± 1.8 kg/m3. The mass density (303.14 K, 33098 kPa) was 1525.7 ± 1.8 kg/m3, the mass density (303.14 K, 33133 kPa) was 1525.9 ± 1.8 kg/m3 and the mass density (303.14 K, 33172 kPa) was 1526 ± 1.8 kg/m3. It also gave a mass density (303.14 K, 33200 kPa) of 1526.1 ± 1.8 kg/m3, a mass density (303.14 K, 33239 kPa) of 1526.2 ± 1.8 kg/m3 and a mass density (303.14 K, 33268 kPa) of 1526.3 ± 1.8 kg/m3. It also gave a mass density (303.14 K, 33306 kPa) of 1526.5 ± 1.8 kg/m3, a mass density (303.14 K, 33345 kPa) of 1526.6 ± 1.8 kg/m3 and a mass density (303.14 K, 33378 kPa) of 1526.7 ± 1.8 kg/m3. The mass density (303.14 K, 33413 kPa) was 1526.7 ± 1.8 kg/m3, the mass density (303.14 K, 33457 kPa) was 1526.9 ± 1.8 kg/m3 and the mass density (303.14 K, 33496 kPa) was 1527.1 ± 1.8 kg/m3. It also gave a mass density (303.14 K, 33537 kPa) of 1527.1 ± 1.8 kg/m3, a mass density (303.14 K, 33567 kPa) of 1527.3 ± 1.8 kg/m3 and a mass density (303.14 K, 33615 kPa) of 1527.5 ± 1.8 kg/m3. It also gave a mass density (303.14 K, 33644 kPa) of 1527.5 ± 1.8 kg/m3, a mass density (303.14 K, 33683 kPa) of 1527.6 ± 1.8 kg/m3 and a mass density (303.14 K, 33717 kPa) of 1527.8 ± 1.8 kg/m3. It also gave a mass density (303.14 K, 33758 kPa) of 1527.8 ± 1.8 kg/m3, a mass density (303.14 K, 33793 kPa) of 1527.9 ± 1.8 kg/m3 and a mass density (303.14 K, 33838 kPa) of 1528 ± 1.8 kg/m3. The mass density (303.14 K, 33877 kPa) was 1528.2 ± 1.8 kg/m3, the mass density (303.14 K, 33912 kPa) was 1528.4 ± 1.8 kg/m3 and the mass density (303.14 K, 34122 kPa) was 1529 ± 1.8 kg/m3. It also gave a mass density (303.14 K, 34158 kPa) of 1529 ± 1.8 kg/m3, a mass density (303.14 K, 34201 kPa) of 1529.1 ± 1.8 kg/m3 and a mass density (303.14 K, 34250 kPa) of 1529.3 ± 1.8 kg/m3. For the same compound, the mass density (303.14 K, 34300 kPa) was 1529.4 ± 1.8 kg/m3, the mass density (303.14 K, 34356 kPa) was 1529.6 ± 1.8 kg/m3 and the mass density (303.14 K, 34400 kPa) was 1529.8 ± 1.8 kg/m3. It also gave a mass density (303.14 K, 34442 kPa) of 1529.9 ± 1.8 kg/m3, a mass density (303.14 K, 34476 kPa) of 1529.9 ± 1.8 kg/m3 and a mass density (303.14 K, 34501 kPa) of 1530.1 ± 1.8 kg/m3. The mass density (303.14 K, 34513 kPa) was 1530 ± 1.8 kg/m3, the mass density (303.14 K, 34522 kPa) was 1530.1 ± 1.8 kg/m3 and the mass density (303.14 K, 34526 kPa) was 1530.1 ± 1.8 kg/m3. The mass density (303.15 K, 540 kPa) was 1366.5 ± 1.5 kg/m3, the mass density (303.15 K, 560 kPa) was 1366.8 ± 1.5 kg/m3 and the mass density (303.15 K, 580 kPa) was 1367 ± 1.5 kg/m3. The mass density (303.15 K, 600 kPa) was 1367.1 ± 1.5 kg/m3, the mass density (303.15 K, 630 kPa) was 1367.3 ± 1.5 kg/m3 and the mass density (303.15 K, 650 kPa) was 1367.5 ± 1.5 kg/m3. For the same compound, the mass density (303.15 K, 680 kPa) was 1367.6 ± 1.5 kg/m3, the mass density (303.15 K, 700 kPa) was 1368 ± 1.5 kg/m3 and the mass density (303.15 K, 720 kPa) was 1368.1 ± 1.5 kg/m3. The mass density (303.15 K, 740 kPa) was 1368.3 ± 1.5 kg/m3, the mass density (303.15 K, 750 kPa) was 1368.5 ± 1.5 kg/m3 and the mass density (303.15 K, 780 kPa) was 1368.7 ± 1.5 kg/m3. For the same compound, the mass density (303.15 K, 800 kPa) was 1368.9 ± 1.5 kg/m3, the mass density (303.15 K, 830 kPa) was 1369.2 ± 1.5 kg/m3 and the mass density (303.15 K, 850 kPa) was 1369.3 ± 1.5 kg/m3. It also gave a mass density (303.15 K, 870 kPa) of 1369.5 ± 1.5 kg/m3, a mass density (303.15 K, 900 kPa) of 1369.8 ± 1.5 kg/m3 and a mass density (303.15 K, 920 kPa) of 1369.9 ± 1.5 kg/m3. For the same compound, the mass density (303.15 K, 950 kPa) was 1370.1 ± 1.5 kg/m3, the mass density (303.15 K, 980 kPa) was 1370.4 ± 1.5 kg/m3 and the mass density (303.15 K, 1000 kPa) was 1370.7 ± 1.5 kg/m3. For the same compound, the mass density (303.15 K, 1030 kPa) was 1370.9 ± 1.5 kg/m3, the mass density (303.15 K, 1060 kPa) was 1371.1 ± 1.5 kg/m3 and the mass density (303.15 K, 1090 kPa) was 1371.4 ± 1.5 kg/m3. It also gave a mass density (303.15 K, 1110 kPa) of 1371.6 ± 1.5 kg/m3, a mass density (303.15 K, 1139 kPa) of 1371.8 ± 1.5 kg/m3 and a mass density (303.15 K, 1161 kPa) of 1372 ± 1.5 kg/m3. For the same compound, the mass density (303.15 K, 1177 kPa) was 1372.1 ± 1.5 kg/m3, the mass density (303.15 K, 1199 kPa) was 1372.3 ± 1.5 kg/m3 and the mass density (303.15 K, 1213 kPa) was 1372.5 ± 1.5 kg/m3. The mass density (303.15 K, 1250 kPa) was 1372.8 ± 1.5 kg/m3, the mass density (303.15 K, 1267 kPa) was 1372.9 ± 1.5 kg/m3 and the mass density (303.15 K, 1284 kPa) was 1373.1 ± 1.5 kg/m3. The mass density (303.15 K, 1299 kPa) was 1373.1 ± 1.5 kg/m3, the mass density (303.15 K, 1317 kPa) was 1373.4 ± 1.5 kg/m3 and the mass density (303.15 K, 1339 kPa) was 1373.5 ± 1.5 kg/m3. The mass density (303.15 K, 1354 kPa) was 1373.7 ± 1.5 kg/m3, the mass density (303.15 K, 1374 kPa) was 1373.9 ± 1.5 kg/m3 and the mass density (303.15 K, 1395 kPa) was 1374.1 ± 1.5 kg/m3. For the same compound, the mass density (303.15 K, 1417 kPa) was 1374.2 ± 1.5 kg/m3, the mass density (303.15 K, 1440 kPa) was 1374.4 ± 1.5 kg/m3 and the mass density (303.15 K, 1464 kPa) was 1374.6 ± 1.5 kg/m3. It also gave a mass density (303.15 K, 1481 kPa) of 1374.7 ± 1.5 kg/m3, a mass density (303.15 K, 1505 kPa) of 1375 ± 1.5 kg/m3 and a mass density (303.15 K, 1522 kPa) of 1375 ± 1.5 kg/m3. The mass density (303.15 K, 1548 kPa) was 1375.3 ± 1.5 kg/m3, the mass density (303.15 K, 1568 kPa) was 1375.5 ± 1.5 kg/m3 and the mass density (303.15 K, 1590 kPa) was 1375.6 ± 1.5 kg/m3. It also gave a mass density (303.15 K, 1608 kPa) of 1375.8 ± 1.5 kg/m3, a mass density (303.15 K, 1631 kPa) of 1375.9 ± 1.5 kg/m3 and a mass density (303.15 K, 1645 kPa) of 1376.1 ± 1.5 kg/m3. It also gave a mass density (303.15 K, 1666 kPa) of 1376.5 ± 1.5 kg/m3, a mass density (303.15 K, 1689 kPa) of 1376.4 ± 1.5 kg/m3 and a mass density (303.15 K, 1706 kPa) of 1376.6 ± 1.5 kg/m3. The mass density (303.15 K, 1732 kPa) was 1376.9 ± 1.5 kg/m3, the mass density (303.15 K, 1794 kPa) was 1377.4 ± 1.5 kg/m3 and the mass density (303.15 K, 1812 kPa) was 1377.6 ± 1.5 kg/m3. It also gave a mass density (303.15 K, 1859 kPa) of 1377.8 ± 1.5 kg/m3, a mass density (303.15 K, 1883 kPa) of 1377.9 ± 1.5 kg/m3 and a mass density (303.15 K, 1903 kPa) of 1378.3 ± 1.5 kg/m3. It also gave a mass density (303.15 K, 1924 kPa) of 1378.4 ± 1.5 kg/m3.
